Source: patent US11384060B2, “Amide compounds and use thereof” (ALPHALA CO., LTD., priority 2017, dated 2022)

Experiments:
glucagon receptor (GCGR) = target: T1, glucagon receptor (GCGR) (Homo sapiens, UniProt P47871); assay: I125-glucagon binding assay (competition, GCGR membrane fractions); conditions: competition with I125-glucagon 0.0625 nM, membrane fractions of GCGR overexpressed CHO-K1 cells
T1 construct: expressed in transfected cells; host or cells: CHO-K1 cells overexpressing GCGR (membrane fractions)
Method in brief: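 Membranes from CHO-K1 cells overexpressing GCGR, 7.5 μg/well in 50 mM Tris pH 7.4 with 0.5% BSA, were preincubated 5 min with serially diluted compounds, then given 0.0625 nM final I^125-glucagon for 30 min at 25° C. Bound label was filtered on PEI-coated GF/B and counted; IC50 by non-linear regression.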

[1] = target: T2, glucagon receptor (GCGR) overexpressed CHO-K1 cells or human primary hepatocytes (Homo sapiens, UniProt P47871); assay: Glucagon cAMP inhibition assay (Cisbio cAMP Dynamic 2 HTRF); type: cell-based; conditions: inhibition of glucagon (EC50 concentration) induced cAMP production
T2 construct: expressed in transfected cells; host or cells: GCGR overexpressed CHO-K1 cells or human primary hepatocytes (endogenous receptor)
Method in brief: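 GCGR-overexpressing CHO-K1 cells or human primary hepatocytes in HBSS with 0.1% BSA and 800 nM IBMX, pre-incubated 30 min with serially diluted compounds (1% DMSO final), then stimulated 30 min at room temperature with glucagon at its EC50. cAMP measured by HTRF after 60 min lysis; IC50 by non-linear regression.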

T1 sequence (P47871 26-477): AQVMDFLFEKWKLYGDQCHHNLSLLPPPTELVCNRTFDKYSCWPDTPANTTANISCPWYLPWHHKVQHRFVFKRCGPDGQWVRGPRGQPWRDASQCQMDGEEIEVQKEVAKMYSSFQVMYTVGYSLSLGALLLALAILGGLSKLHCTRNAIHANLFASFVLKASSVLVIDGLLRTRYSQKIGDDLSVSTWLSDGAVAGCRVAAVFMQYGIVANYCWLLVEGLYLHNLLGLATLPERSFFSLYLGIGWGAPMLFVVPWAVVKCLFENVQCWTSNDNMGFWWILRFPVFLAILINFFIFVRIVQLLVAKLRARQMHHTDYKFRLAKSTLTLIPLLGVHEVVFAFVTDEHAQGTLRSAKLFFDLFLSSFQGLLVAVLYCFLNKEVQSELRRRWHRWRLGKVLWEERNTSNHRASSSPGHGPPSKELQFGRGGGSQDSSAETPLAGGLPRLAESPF
T2 sequence (P47871 26-477): as above

| IC50 (glucagon receptor (GCGR)) [nM] | IC50 cAMP [1] [nM] | SMILES |
| --- | --- | --- |
| 262 | 816 | CC(C)C[C@@H](COc1cc(F)c(-c2cc(Cl)cc(Cl)c2)c(F)c1)Nc1ccc(C(=O)NCCC(=O)O)cc1 [Compound 7-9, (S)-3-(4-((1-((3′,5′-dichloro-2,6-difluoro-[1,1′-biphenyl]-4-yl)oxy)-4-methylpentan-2-yl)amino)benzamido)propanoic Acid] |
| 145 | 730.9 | CC(C)C[C@@H](COc1cc(F)c(-c2cc3ccccc3o2)c(F)c1)Nc1ccc(C(=O)NCCC(=O)O)cc1 [Compound 7-10, (S)-3-(4-((1-(4-(benzofuran-2-yl)-3,5-difluorophenoxy)-4-methylpentan-2-yl)amino)benzamido)propanoic Acid] |
| 74 | 209 | CC(C)[C@@H](COc1cc(F)c(-c2ccc(Cl)cc2Cl)c(F)c1)Nc1ccc(C(=O)NCCC(=O)O)cc1 [Compound 7-11, (S)-3-(4-((1-((2′,4′-dichloro-2,6-difluoro-[1,1′-biphenyl]-4-yl)oxy)-3-methylbutan-2-yl)amino)benzamido)propanoic Acid] |
| 112 | 61.9 | CC(C)[C@@H](COc1ccc(-c2ccc(C(F)(F)F)cc2F)c(F)c1)Nc1ccc(C(=O)NCCC(=O)O)cc1 [Compound 8-1, (S)-3-(4-((1-((2,2′-difluoro-4′-(trifluoromethyl)-[1,1′-biphenyl]-4-yl)oxy)-3-methylbutan-2-yl)amino)benzamido)propanoic Acid] |
| 1710 | 12144 | CC(C)[C@@H](COc1ccc(-c2ccc(C(F)(F)F)cc2F)c(F)c1)Nc1ccc(C(=O)NCCS(=O)(=O)O)cc1 [Compound 8-2, (S)-2-(4-((1-((2,2′-difluoro-4′-(trifluoromethyl)-[1,1′-biphenyl]-4-yl)oxy)-3-methylbutan-2-yl)amino)benzamido)ethane-1-sulfonic Acid] |
| 83 | 84.4 | CC(C)[C@@H](COc1ccc(-c2cc3ccccc3o2)c(F)c1)Nc1ccc(C(=O)NCCC(=O)O)cc1 [Compound 8-3, (S)-3-(4-((1-(4-(benzofuran-2-yl)-3-fluorophenoxy)-3-methylbutan-2-yl)amino)benzamido)propanoic Acid] |
| 1720 | 10292 | CC(C)[C@@H](COc1ccc(-c2cc3ccccc3o2)c(F)c1)Nc1ccc(C(=O)NCCS(=O)(=O)O)cc1 [Compound 8-4, (S)-2-(4-((1-(4-(benzofuran-2-yl)-3-fluorophenoxy)-3-methylbutan-2-yl)amino)benzamido)ethane-1-sulfonic Acid] |
| 75 | 85 | CC(C)[C@@H](COc1ccc(-c2ccc(C(F)(F)F)cc2Cl)c(F)c1)Nc1ccc(C(=O)NCCC(=O)O)cc1 [Compound 8-5, (S)-3-(4-((1-((2′-chloro-2-fluoro-4′-(trifluoromethyl)-[1,1′-biphenyl]-4-yl)oxy)-3-methylbutan-2-yl)amino)benzamido)propanoic Acid] |
| 172 | 428 | CC(C)C[C@@H](COc1ccc(-c2ccc(C(F)(F)F)cc2F)c(F)c1)Nc1ccc(C(=O)NCCC(=O)O)cc1 [Compound 8-6, (S)-3-(4-((1-((2,2′-difluoro-4′-(trifluoromethyl)-[1,1′-biphenyl]-4-yl)oxy)-4-methylpentan-2-yl)amino)benzamido)propanoic Acid] |
| 186 | 129 | CC[C@H](C)[C@@H](COc1ccc(-c2cc3ccccc3o2)c(F)c1)Nc1ccc(C(=O)NCCC(=O)O)cc1 [Compound 8-7, 3-(4-(((2S,3S)-1-(4-(benzofuran-2-yl)-3-fluorophenoxy)-3-methylpentan-2-yl)amino)benzamido)propanoic Acid] |
| 277 | 500 | CC[C@H](C)[C@@H](COc1ccc(-c2ccc(C(F)(F)F)cc2Cl)c(F)c1)Nc1ccc(C(=O)NCCC(=O)O)cc1 [Compound 8-8, 3-(4-(((2S,3S)-1-((2′-chloro-2-fluoro-4′-(trifluoromethyl)-[1,1′-biphenyl]-4-yl)oxy)-3-methylpentan-2-yl)amino)benzamido)propanoic Acid] |
| 145 | 365 | CC(C)[C@@H](COc1ccc(-c2ccc(Cl)cc2Cl)c(F)c1)Nc1ccc(C(=O)NCCC(=O)O)cc1 [Compound 8-9, (S)-3-(4-((1-((2′,4′-dichloro-2-fluoro-[1,1′-biphenyl]-4-yl)oxy)-3-methylbutan-2-yl)amino)benzamido)propanoic Acid] |
| 186 | 353.2 | CC[C@H](C)[C@@H](COc1ccc(-c2ccc(C(F)(F)F)cc2F)c(F)c1)Nc1ccc(C(=O)NCCC(=O)O)cc1 [Compound 8-10, 3-(4-(((2S,3S)-1-((2,2′-difluoro-4′-(trifluoromethyl)-[1,1′-biphenyl]-4-yl)oxy)-3-methylpentan-2-yl)amino)benzamido)propanoic Acid] |
| 51 | 269.1 | CC[C@H](C)[C@@H](COc1ccc(-c2ccc(Cl)cc2Cl)c(F)c1)Nc1ccc(C(=O)NCCC(=O)O)cc1 [Compound 8-11, 3-(4-(((2S,3S)-1-((2′,4′-dichloro-2-fluoro-[1,1′-biphenyl]-4-yl)oxy)-3-methylpentan-2-yl)amino)benzamido)propanoic Acid] |
| 227 | 1243 | CC(C)[C@@H](COc1ccc(-c2cc(Cl)cc(Cl)c2)c(F)c1)Nc1ccc(C(=O)NCCC(=O)O)cc1 [Compound 8-12, (S)-3-(4-((1-((3′,5′-dichloro-2-fluoro-[1,1′-biphenyl]-4-yl)oxy)-3-methylbutan-2-yl)amino)benzamido)propanoic Acid] |
| 44 | 84 | CCCC[C@@H](COc1ccc(-c2cc3ccccc3o2)c(F)c1)Nc1ccc(C(=O)NCCC(=O)O)cc1 [Compound 8-13, (S)-3-(4-((1-(4-(benzofuran-2-yl)-3-fluorophenoxy)hexan-2-yl)amino)benzamido) propanoic Acid] |
| 251 | 250 | CC[C@H](C)[C@@H](COc1ccc(-c2ccc(C(F)(F)F)cc2)c(F)c1)Nc1ccc(C(=O)NCCC(=O)O)cc1 [Compound 8-14, 3-(4-(((2S,3S)-1-((2-fluoro-4′-(trifluoromethyl)-[1,1′-biphenyl]-4-yl)oxy)-3-methylpentan-2-yl)amino)benzamido)propanoic Acid] |
| 59 | 129 | CCCC[C@@H](COc1ccc(-c2ccc(C(F)(F)F)cc2Cl)c(F)c1)Nc1ccc(C(=O)NCCC(=O)O)cc1 [Compound 8-15, (S)-3-(4-((1-((2′-chloro-2-fluor-4′-(trifluromethyl)-[1,1′-biphenyl]-4-yl)oxy)hexan-2-yl)amino)benzamido)propanoic Acid] |
| 89 | 135 | CCCC[C@@H](COc1ccc(-c2ccc(Cl)cc2Cl)c(F)c1)Nc1ccc(C(=O)NCCC(=O)O)cc1 [Compound 8-16, (S)-3-(4-((1-((2′,4′-dichloro-2-fluoro-[1,1′-biphenyl]-4-yl)oxy)hexan-2-yl)amino)benzamido)propanoic Acid] |
| 308 | 227.6 | CCCC[C@@H](COc1ccc(-c2ccc(C(F)(F)F)cc2F)c(F)c1)Nc1ccc(C(=O)NCCC(=O)O)cc1 [Compound 8-17, (S)-3-(4-((1-((2,2′-difluoro-4′-(trifluoromethyl)-[1,1′-biphenyl]-4-yl)oxy)hexan-2-yl)amino)benzamido)propanoic Acid] |
